≈ marks a conversion by molar mass, not a printed value. Where two headings read alike, the source gives them in different places.
Assays:
Format in all cases: cell-based
[1] = test system: Enterococcus faecalis (EFA); test: MIC, two-fold agar dilution (CLSI), clinical isolates
Text: (§1) 1. The invention adopts the two-fold agar dilution method recommended by the operating procedure of antimicrobial susceptibility testing set by American Clinical and Laboratory Standards Institute (CLSI) to determine the Minimum Inhibitory Concentration (MIC) of the test samples against the tested strains.

[2] = test system: Escherichia coli (including ESBLs, non-ESBLs); test: as above
Text: as §1

[3] = test system: methicillin-resistant Staphylococcus aureus (MRSA); test: as above
Text: as §1

[4] = test system: methicillin-resistant Staphylococcus epidermidis (MRSE); test: as above
Text: as §1

[5] = test system: methicillin-sensitive Staphylococcus aureus (MSSA); test: as above
Text: as §1

[6] = test system: methicillin-sensitive Staphylococcus epidermidis (MSSE); test: as above
Text: as §1

[7] = test system: HCT-116 colorectal cancer cell line; test: CCK-8 proliferation inhibition; conditions: Homo sapiens, HCT-116, 72 h, read-out: HCT116 inhibition rate/%
Experimental: (1) HCT-116 colorectal cancer cell line, A549 lung cancer cell line, MGC-803 gastric cancer cell line, BEL-7402 liver cancer cell line, Jurkat T cell leukemia cell line, HL60 acute myeloid leukemia cell line, Hela cervical cancer cell line, MCF-7 breast cancer cell line, PC3 prostate cancer cell line and SAOS-2 osteosarcoma cell line were made into single cell suspension, 180 μL of which was inoculated into 96-well culture plate, which was cultured overnight in CO2 incubator (37° C., 5% CO2, 95% air).
(2) Each of the spiro three-membered ring, spiro five membered ring peptide deformylase inhibitors was dissolved in DMSO, and was further formulated into drug solution with required different final concentration using corresponding cell culture medium. The drug solutions were added to the above cells respectively (20 μL/well), with the control group added with 1‰ DMSO, and cultured in a CO2 incubator for 72 hours.
(3) After incubation for 72 hours, the culture solution was decanted, and 100 μL of 1:10 diluted CCK-8 solution was added.
Wherein, in step (1), the concentration of the single cell suspension was 2000 cells/well.
Wherein, in step (2), HCT-116 cells were cultured in McCoy's 5A medium (containing 10% newborn bovine serum, 1% double antibody); A549 and PC3 cells were cultured in F12 medium (containing 10% newborn bovine serum, 1% double antibody); MGC-803, BEL-7402, SAOS-2, Jurkat and HL60 cells were cultured in 1640 medium (containing 10% newborn bovine serum, 1% double antibody); and MCF-7 and Hela cells were cultured in DMEM high glucose medium (containing 10% newborn bovine serum, 1% double antibody).

[8] = test system: Enterococcus faecium (EFM); test: MIC, two-fold agar dilution (CLSI), clinical isolates
Text: as §1

[9] = test system: Moraxella catarrhalis (BCA); test: as above
Text: as §1

[10] = test system: Streptococcus pneoumoniae (SPN); test: as above
Text: as §1

[11] = strain printed MRSA 14-1 (second line of that name, r23, before MRSE 14-2)
[12] = concentration of 30 μM, 72 hours, CCK-8

## CCCC[C@H](CN(O)C=O)C(=O)N1CC2(CC2)C[C@H]1C(=O)Nc1cc[nH]n1 [Example 1]
[1]; strain EFA 14-1
  MIC (anti-bacterial activity): 64 mg/L (≈ 170 µM)
[1]; strain EFA 14-2
  MIC (anti-bacterial activity): 64 mg/L (≈ 170 µM)
[1]; strain EFA 14-3
  MIC (anti-bacterial activity): 64 mg/L (≈ 170 µM)
[1]; strain EFA 14-5
  MIC (anti-bacterial activity): > 128 mg/L
[2]; strain ECO+ 14-1
  MIC (anti-bacterial activity): 16 mg/L (≈ 42.4 µM)
[2]; strain ECO+ 14-2
  MIC (anti-bacterial activity): 128 mg/L (≈ 339 µM)
[2]; strain ECO− 14-1
  MIC (anti-bacterial activity): > 128 mg/L
[2]; strain ECO− 14-2
  MIC (anti-bacterial activity): > 128 mg/L
[3]; strain MRSA 14-1
  MIC (anti-bacterial activity): 16 mg/L (≈ 42.4 µM)
[3]; strain MRSA 14-2
  MIC (anti-bacterial activity): 32 mg/L (≈ 84.8 µM)
[3]; strain MRSA 14-4
  MIC (anti-bacterial activity): 16 mg/L (≈ 42.4 µM)
[3]; strain MRSA 14-5
  MIC (anti-bacterial activity): 8 mg/L (≈ 21.2 µM)
[3]; [11]
  MIC (anti-bacterial activity): 8 mg/L (≈ 21.2 µM)
[4]; strain MRSE 14-2
  MIC (anti-bacterial activity): 8 mg/L (≈ 21.2 µM)
[4]; strain MRSE 14-3
  MIC (anti-bacterial activity): 4 mg/L (≈ 10.6 µM)
[4]; strain MRSE 14-4
  MIC (anti-bacterial activity): 8 mg/L (≈ 21.2 µM)
[5]; strain MSSA 14-1
  MIC (anti-bacterial activity): 16 mg/L (≈ 42.4 µM)
[5]; strain MSSA 14-2
  MIC (anti-bacterial activity): 16 mg/L (≈ 42.4 µM)
[5]; strain MSSA 14-3
  MIC (anti-bacterial activity): 16 mg/L (≈ 42.4 µM)
[5]; strain MSSA 14-4
  MIC (anti-bacterial activity): 16 mg/L (≈ 42.4 µM)
[6]; strain MSSE 14-1
  MIC (anti-bacterial activity): 4 mg/L (≈ 10.6 µM)
[6]; strain MSSE 14-2
  MIC (anti-bacterial activity): 16 mg/L (≈ 42.4 µM)
[6]; strain MSSE 14-3
  MIC (anti-bacterial activity): 4 mg/L (≈ 10.6 µM)
[6]; strain MSSE 14-4
  MIC (anti-bacterial activity): 4 mg/L (≈ 10.6 µM)
[7]
  inhibition at 30 µM: 7%

## CCCC[C@H](CN(O)C=O)C(=O)N1CC2(CC2)C[C@H]1C(=O)Nc1ncccc1F [Example 5]
[1]; strain EFA 14-1
  MIC (anti-bacterial activity): 2 mg/L (≈ 4.92 µM)
[1]; strain EFA 14-2
  MIC (anti-bacterial activity): 2 mg/L (≈ 4.92 µM)
[1]; strain EFA 14-3
  MIC (anti-bacterial activity): 2 mg/L (≈ 4.92 µM)
[1]; strain EFA 14-5
  MIC (anti-bacterial activity): 2 mg/L (≈ 4.92 µM)
[2]; strain ECO+ 14-1
  MIC (anti-bacterial activity): 2 mg/L (≈ 4.92 µM)
[2]; strain ECO+ 14-2
  MIC (anti-bacterial activity): 64 mg/L (≈ 157 µM)
[2]; strain ECO− 14-1
  MIC (anti-bacterial activity): > 64 mg/L
[2]; strain ECO− 14-2
  MIC (anti-bacterial activity): 64 mg/L (≈ 157 µM)
[3]; strain MRSA 14-1
  MIC (anti-bacterial activity): 0.5 mg/L (≈ 1.23 µM)
[3]; strain MRSA 14-2
  MIC (anti-bacterial activity): 0.5 mg/L (≈ 1.23 µM)
[3]; strain MRSA 14-4
  MIC (anti-bacterial activity): 0.5 mg/L (≈ 1.23 µM)
[3]; strain MRSA 14-5
  MIC (anti-bacterial activity): 0.25 mg/L (≈ 0.615 µM)
[3]; [11]
  MIC (anti-bacterial activity): 0.25 mg/L (≈ 0.615 µM)
[4]; strain MRSE 14-2
  MIC (anti-bacterial activity): 0.25 mg/L (≈ 0.615 µM)
[4]; strain MRSE 14-3
  MIC (anti-bacterial activity): 0.125 mg/L (≈ 0.308 µM)
[4]; strain MRSE 14-4
  MIC (anti-bacterial activity): 0.5 mg/L (≈ 1.23 µM)
[5]; strain MSSA 14-1
  MIC (anti-bacterial activity): 0.5 mg/L (≈ 1.23 µM)
[5]; strain MSSA 14-2
  MIC (anti-bacterial activity): 0.5 mg/L (≈ 1.23 µM)
[5]; strain MSSA 14-3
  MIC (anti-bacterial activity): 0.5 mg/L (≈ 1.23 µM)
[5]; strain MSSA 14-4
  MIC (anti-bacterial activity): 0.5 mg/L (≈ 1.23 µM)
[6]; strain MSSE 14-1
  MIC (anti-bacterial activity): 0.125 mg/L (≈ 0.308 µM)
[6]; strain MSSE 14-2
  MIC (anti-bacterial activity): 0.25 mg/L (≈ 0.615 µM)
[6]; strain MSSE 14-3
  MIC (anti-bacterial activity): 0.25 mg/L (≈ 0.615 µM)
[6]; strain MSSE 14-4
  MIC (anti-bacterial activity): 0.25 mg/L (≈ 0.615 µM)
[7]; [12]
  inhibition at 30 µM: -15%

## CCCC[C@H](CN(O)C=O)C(=O)N1CC2(CC2)C[C@H]1C(=O)Nc1ccc(N2CCOCC2)cc1 [Example 14]
[1]; strain EFA 15-1
  MIC (anti-bacterial activity): 8 mg/L (≈ 16.9 µM)
[1]; strain EFA 15-2
  MIC (anti-bacterial activity): 8 mg/L (≈ 16.9 µM)
[1]; strain EFA 15-3
  MIC (anti-bacterial activity): 2 mg/L (≈ 4.23 µM)
[1]; strain EFA 15-4
  MIC (anti-bacterial activity): 8 mg/L (≈ 16.9 µM)
[1]; strain EFA 15-5
  MIC (anti-bacterial activity): 8 mg/L (≈ 16.9 µM)
[1]; strain EFA 15-6
  MIC (anti-bacterial activity): 8 mg/L (≈ 16.9 µM)
[1]; strain EFA 15-9
  MIC (anti-bacterial activity): 8 mg/L (≈ 16.9 µM)
[8]; strain EFM 15-1
  MIC (anti-bacterial activity): 1 mg/L (≈ 2.12 µM)
[8]; strain EFM 15-2
  MIC (anti-bacterial activity): 2 mg/L (≈ 4.23 µM)
[8]; strain EFM 15-3
  MIC (anti-bacterial activity): 0.5 mg/L (≈ 1.06 µM)
[8]; strain EFM 15-4
  MIC (anti-bacterial activity): 4 mg/L (≈ 8.46 µM)
[8]; strain EFM 15-5
  MIC (anti-bacterial activity): 0.5 mg/L (≈ 1.06 µM)
[8]; strain EFM 15-6
  MIC (anti-bacterial activity): 2 mg/L (≈ 4.23 µM)
[2]; strain ECO+ 15-1
  MIC (anti-bacterial activity): > 32 mg/L
[2]; strain ECO+ 15-2
  MIC (anti-bacterial activity): > 32 mg/L
[2]; strain ECO+ 15-3
  MIC (anti-bacterial activity): > 32 mg/L
[2]; strain ECO+ 15-4
  MIC (anti-bacterial activity): > 32 mg/L
[2]; strain ECO− 15-1
  MIC (anti-bacterial activity): > 32 mg/L
[2]; strain ECO− 15-2
  MIC (anti-bacterial activity): > 32 mg/L
[2]; strain ECO− 15-3
  MIC (anti-bacterial activity): > 32 mg/L
[2]; strain ECO− 15-4
  MIC (anti-bacterial activity): > 32 mg/L
[9]; strain BCA 14-1
  MIC (anti-bacterial activity): 4 mg/L (≈ 8.46 µM)
[9]; strain BCA 14-4
  MIC (anti-bacterial activity): 2 mg/L (≈ 4.23 µM)
[9]; strain BCA 14-5
  MIC (anti-bacterial activity): 2 mg/L (≈ 4.23 µM)
[9]; strain BCA 14-6
  MIC (anti-bacterial activity): 2 mg/L (≈ 4.23 µM)
[9]; strain BCA 14-7
  MIC (anti-bacterial activity): 1 mg/L (≈ 2.12 µM)
[9]; strain BCA 14-8
  MIC (anti-bacterial activity): 2 mg/L (≈ 4.23 µM)
[9]; strain BCA 14-10
  MIC (anti-bacterial activity): 0.5 mg/L (≈ 1.06 µM)
[10]; strain SPN 16-2
  MIC (anti-bacterial activity): 8 mg/L (≈ 16.9 µM)
[10]; strain SPN 16-4
  MIC (anti-bacterial activity): 0.5 mg/L (≈ 1.06 µM)
[3]; strain MRSA 15-1
  MIC (anti-bacterial activity): 1 mg/L (≈ 2.12 µM)
[3]; strain MRSA 15-2
  MIC (anti-bacterial activity): 1 mg/L (≈ 2.12 µM)
[3]; strain MRSA 15-3
  MIC (anti-bacterial activity): 1 mg/L (≈ 2.12 µM)
[3]; strain MRSA 15-4
  MIC (anti-bacterial activity): 1 mg/L (≈ 2.12 µM)
[4]; strain MRSE 15-1
  MIC (anti-bacterial activity): 0.25 mg/L (≈ 0.529 µM)
[4]; strain MRSE 15-2
  MIC (anti-bacterial activity): 0.25 mg/L (≈ 0.529 µM)
[4]; strain MRSE 15-3
  MIC (anti-bacterial activity): 1 mg/L (≈ 2.12 µM)
[4]; strain MRSE 15-7
  MIC (anti-bacterial activity): 1 mg/L (≈ 2.12 µM)
[5]; strain MSSA 15-3
  MIC (anti-bacterial activity): 1 mg/L (≈ 2.12 µM)
[5]; strain MSSA 15-4
  MIC (anti-bacterial activity): 1 mg/L (≈ 2.12 µM)
[5]; strain MSSA 15-5
  MIC (anti-bacterial activity): 0.25 mg/L (≈ 0.529 µM)
[5]; strain MSSA 15-6
  MIC (anti-bacterial activity): 1 mg/L (≈ 2.12 µM)
[6]; strain MSSE 15-3
  MIC (anti-bacterial activity): 0.25 mg/L (≈ 0.529 µM)
[6]; strain MSSE 15-4
  MIC (anti-bacterial activity): 0.25 mg/L (≈ 0.529 µM)
[6]; strain MSSE 15-5
  MIC (anti-bacterial activity): 0.25 mg/L (≈ 0.529 µM)
[6]; strain MSSE 15-6
  MIC (anti-bacterial activity): 0.125 mg/L (≈ 0.265 µM)
[7]; [12]
  inhibition at 30 µM: 21%

Reference: patent US10738028B2, “Spiro three-membered ring, spiro five-membered ring peptide deformylase inhibitor and use thereof in antibacteria and anti-tumor” (priority 2016, dated 2020)
